# In patent US20230372221A1, “USE OF THIOPYRIDINONE COMPOUNDS FOR PREVENTING THE FORMATION OF CUTANEOUS BLACKHEADS” (L'OREAL, priority 2020, published 2023):
# Tested on: oxidation of the L-DOPA under the action of the bacterial extract (intracellular extract of Cutibacterium acnes CIP 53.117)
# Experiment: In vitro evaluation of the ability to inhibit the development of the colour (absorbance at 475 nm of L-DOPA + Cutibacterium acnes extract)
# Assay type: biochemical
# Conditions: for inhibiting the development of the colour (result in words): compared with Reference (absence of treatment); for optical density at 475 nm: 32° C.; for % inhib (percentage of inhibition of the formation of the coloured product): from initial rate of oxidation between 10 and 40 minutes vs reference composition
# Excerpt: This method is based on the measurement of absorbance, over time, carried out directly on a composition formed of a mixture of intracellular extract of bacteria of Cutibacterium acnes type, of 3,4-dihydroxy-L-phenylalanine (L-DOPA) and of a test compound. The measurements are compared with those carried out for a mixture of an intracellular extract of bacteria of Cutibacterium acnes type and of 3,4-dihydroxy-L-phenylalanine (L-DOPA), in the absence of test compound (reference). The method is adapted from a method for the enzymatic assay of the tyrosinase activity (Behbahani et al., Microchemical Journal (1993), 47, 251), which is based on the absorbance properties at 475 nm of a coloured intermediate of the pathway for the biosynthesis of melanin starting from L-DOPA, namely dopachrome, a product of the oxidation of L-DOPA. An intracellular extract of bacteria of Cutibacterium acnes CIP 53.117 type stored at 4° C. in the lyophilized form is suspended in 1×PBS (supplied by Gibco BRL Life Technologies) at a concentration of 6 mg/ml. A solution of L-DOPA at a concentration of 0.5 mg/ml is prepared by bringing together L-DOPA (supplied by Sigma-Aldrich) and milliQ water, so as to have an L-DOPA concentration of 1 mg/ml, then diluting with 1×PBS (Dulbecco's Phosphate Buffered Saline, supplied by Gibco BRL Life Technologies). The mixture of 50 μl of these two solutions and of 100 μl of 1×PBS (Dulbecco's Phosphate Buffered Saline, supplied by Gibco BRL Life Technologies) results in a composition with a total volume of 200 μl containing L-DOPA (at a concentration of 125 μg/ml) and Cutibacterium acnes extract (at a concentration of 1.5 mg/ml). The test compositions and the reference composition are introduced separately into wells of a 96-well microplate suitable for reading in visible spectrophotometry, and placed at a temperature of 32° C. The formation of a coloured product is monitored over time by spectrophotometry. To do this, the absorbance, or optical density (O.D.), is measured at 475 nm from the time 0 to the time 2 hours by means of a Spectra Max M5e reader and the Spectra Max software (the time 0 corresponds to the introduction of the composition into the wells). The ability to inhibit the development of the colour of a given compound was assessed by comparing the absorbance measurements obtained for the test compositions with those obtained for the reference composition. More specifically, the inhibitory effect of the test compound was evaluated by comparing the initial rate of oxidation of the L-DOPA under the action of the bacterial extract at 475 nm for the test composition with that of the reference composition in order to obtain a corresponding percentage of inhibition. In practice, the initial rate (Vi) of the oxidation reaction is calculated from the linear part of the curve of the graph of the absorbance values. As this part lies between 10 and 40 minutes (see the graph in FIG. 1), the initial rate of the oxidation reaction is determined using the following relationship: [formula] The percentage of inhibition (% inhib) of a given compound with regard to the formation of the coloured product is subsequently obtained using the values of the initial rate of the oxidation reaction for the reference composition (Viref) and for the test composition ([…]) according to the following relationship: [formula] Within the meaning of the invention, a compound is regarded as having an inhibitory effect if the % inhib value is at least 15%.
# [1] = test compound 100 μM, duration 0 minutes
# [2] = test compound 100 μM, duration 10 minutes
# [3] = test compound 100 μM, duration 20 minutes
# [4] = test compound 100 μM, duration 30 minutes
# [5] = test compound 100 μM, duration 40 minutes
# [6] = test compound 100 μM, duration 60 minutes
# [7] = test compound 100 μM, duration 80 minutes
# [8] = test compound 100 μM, duration 100 minutes
# [9] = test compound 100 μM, duration 120 minutes
# [10] = test compound 12.5 μM, duration 0 minutes
# [11] = test compound 12.5 μM, duration 10 minutes
# [12] = test compound 12.5 μM, duration 20 minutes
# [13] = test compound 12.5 μM, duration 30 minutes
# [14] = test compound 12.5 μM, duration 40 minutes
# [15] = test compound 12.5 μM, duration 60 minutes
# [16] = test compound 12.5 μM, duration 80 minutes
# [17] = test compound 12.5 μM, duration 100 minutes
# [18] = test compound 12.5 μM, duration 120 minutes
# [19] = test compound 25 μM, duration 0 minutes
# [20] = test compound 25 μM, duration 10 minutes
# [21] = test compound 25 μM, duration 20 minutes
# [22] = test compound 25 μM, duration 30 minutes
# [23] = test compound 25 μM, duration 40 minutes
# [24] = test compound 25 μM, duration 60 minutes
# [25] = test compound 25 μM, duration 80 minutes
# [26] = test compound 25 μM, duration 100 minutes
# [27] = test compound 25 μM, duration 120 minutes
# [28] = test compound 50 μM, duration 0 minutes
# [29] = test compound 50 μM, duration 10 minutes
# [30] = test compound 50 μM, duration 20 minutes
# [31] = test compound 50 μM, duration 30 minutes
# [32] = test compound 50 μM, duration 40 minutes
# [33] = test compound 50 μM, duration 60 minutes
# [34] = test compound 50 μM, duration 80 minutes
# [35] = test compound 50 μM, duration 100 minutes
# [36] = test compound 50 μM, duration 120 minutes
smiles,measurement,setting,value
"CCCCc1ccc(O)cc1O [Lucinol, 4-butylresorcinol, reference compound]",inhibiting the development of the colour (result in words),,does not make it possible to inhibit the development of the colour
same,inhibiting the development of the colour (result in words),listed as lucinol,without effect
same,optical density at 475 nm,[1],0.0552
same,optical density at 475 nm,[2],0.0563
same,optical density at 475 nm,[3],0.0591
same,optical density at 475 nm,[4],0.0629
same,optical density at 475 nm,[5],0.0671
same,optical density at 475 nm,[6],0.0730
same,optical density at 475 nm,[7],0.0758
same,optical density at 475 nm,[8],0.0768
same,optical density at 475 nm,[9],0.0765
same,% inhib (percentage of inhibition of the formation of the coloured product),test compound 100 μM,0%
"CCNC(=O)c1ccc[nH]c1=S [Compound 1, N-ethyl-2-thioxo-1,2-dihydropyridine-3-carboxamide]",inhibiting the development of the colour (result in words),,very effective
same,optical density at 475 nm,[10],0.0553
same,optical density at 475 nm,[11],0.0553
same,optical density at 475 nm,[12],0.0561
same,optical density at 475 nm,[13],0.0569
same,optical density at 475 nm,[14],0.0584
same,optical density at 475 nm,[15],0.0605
same,optical density at 475 nm,[16],0.0631
same,optical density at 475 nm,[17],0.0661
same,optical density at 475 nm,[18],0.0681
same,% inhib (percentage of inhibition of the formation of the coloured product),test compound 12.5 μM,66%
same,optical density at 475 nm,[19],0.0554
same,optical density at 475 nm,[20],0.0560
same,optical density at 475 nm,[21],0.0572
same,optical density at 475 nm,[22],0.0587
same,optical density at 475 nm,[23],0.0596
same,optical density at 475 nm,[24],0.0601
same,optical density at 475 nm,[25],0.0611
same,optical density at 475 nm,[26],0.0627
same,optical density at 475 nm,[27],0.0640
same,% inhib (percentage of inhibition of the formation of the coloured product),test compound 25 μM,60%
same,optical density at 475 nm,[28],0.0541
same,optical density at 475 nm,[29],0.0565
same,optical density at 475 nm,[30],0.0568
same,optical density at 475 nm,[31],0.0569
same,optical density at 475 nm,[32],0.0568
same,optical density at 475 nm,[33],0.0575
same,optical density at 475 nm,[34],0.0574
same,optical density at 475 nm,[35],0.0598
same,optical density at 475 nm,[36],0.0597
same,% inhib (percentage of inhibition of the formation of the coloured product),test compound 50 μM,96%
same,optical density at 475 nm,[1],0.0568
same,optical density at 475 nm,[2],0.0555
same,optical density at 475 nm,[3],0.0548
same,optical density at 475 nm,[4],0.0561
same,optical density at 475 nm,[5],0.0555
same,optical density at 475 nm,[6],0.0557
same,optical density at 475 nm,[7],0.0559
same,optical density at 475 nm,[8],0.0564
same,optical density at 475 nm,[9],0.0567
same,% inhib (percentage of inhibition of the formation of the coloured product),test compound 100 μM,100%
"CN(CC(=O)O)C(=O)c1ccc[nH]c1=S [Compound 3, N-methyl-N-[(2-thioxo-1,2-dihydropyridin-3-yl)carbonyl]glycine]",inhibiting the development of the colour (result in words),,very effective
same,optical density at 475 nm,[10],0.0555
same,optical density at 475 nm,[11],0.0565
same,optical density at 475 nm,[12],0.0575
same,optical density at 475 nm,[13],0.0595
same,optical density at 475 nm,[14],0.0613
same,optical density at 475 nm,[15],0.0647
same,optical density at 475 nm,[16],0.0677
same,optical density at 475 nm,[17],0.0686
same,optical density at 475 nm,[18],0.0694
same,% inhib (percentage of inhibition of the formation of the coloured product),test compound 12.5 μM,39%
same,optical density at 475 nm,[19],0.0549
same,optical density at 475 nm,[20],0.0569
same,optical density at 475 nm,[21],0.0578
same,optical density at 475 nm,[22],0.0594
same,optical density at 475 nm,[23],0.0607
same,optical density at 475 nm,[24],0.0630
same,optical density at 475 nm,[25],0.0651
same,optical density at 475 nm,[26],0.0664
same,optical density at 475 nm,[27],0.0677
same,% inhib (percentage of inhibition of the formation of the coloured product),test compound 25 μM,51%
same,optical density at 475 nm,[28],0.0539
same,optical density at 475 nm,[29],0.0561
same,optical density at 475 nm,[30],0.0575
same,optical density at 475 nm,[31],0.0587
same,optical density at 475 nm,[32],0.0594
same,optical density at 475 nm,[33],0.0609
same,optical density at 475 nm,[34],0.0623
same,optical density at 475 nm,[35],0.0632
same,optical density at 475 nm,[36],0.0639
same,% inhib (percentage of inhibition of the formation of the coloured product),test compound 50 μM,58%
same,optical density at 475 nm,[1],0.0579
same,optical density at 475 nm,[2],0.0606
same,optical density at 475 nm,[3],0.0612
same,optical density at 475 nm,[4],0.0619
same,optical density at 475 nm,[5],0.0623
same,optical density at 475 nm,[6],0.0618
same,optical density at 475 nm,[7],0.0606
same,optical density at 475 nm,[8],0.0605
same,optical density at 475 nm,[9],0.0609
same,% inhib (percentage of inhibition of the formation of the coloured product),test compound 100 μM,78%
